Values of other authors in publication PMC5156321 (Natural product communications, 2014).
Read-outs that look alike come from different tables or passages of the source. Each block holds one compound with its values, some of them ahead of it.

What was measured:
[1] = molecular target: matrix metalloproteinase-3 (MMP-3); conditions: for IC50: read-out: MMP-3 IC50
[2] = tested on: HeLaS3; conditions: read-out: IC50 (μM) Nuclei Count Proliferation HeLaS3; tested at MSKCC
[3] = tested on: UMUC3; conditions: read-out: IC50 (μM) Nuclei Count Proliferation UMUC3; tested at MSKCC
[4] = tested on: UMUC3; conditions: read-out: IC50 (μM) Alamar Blue Viability UMUC3; tested at MSKCC
[5] = tested on: HeLaS3; conditions: read-out: IC50 (μM) Alamar Blue Viability HeLaS3; tested at MSKCC
[6] = tested on: non-small cell lung cancer NCI-H522; conditions: NCI-DTP 60
[7] = tested on: all leukemia cell lines; conditions: NCI-DTP 60
[8] = tested on: caspase-1; conditions: for Caspase-1 IC100: tested at 100 μg/mL and 10 μg/mL; for caspase-1 % inhibition: test concentration 100 μg,mL; for IC50: read-out: Caspase-1 IC50
[9] = tested on: non-small cell lung cancer NCI-H460; conditions: NCI-DTP 60
[10] = tested on: leukemia CCRFCEM; conditions: NCI-DTP 60
[11] = tested on: leukemia HL-60; conditions: NCI-DTP 60
[12] = tested on: IL-1β production in induced THP-1 cells; conditions: for inhibition of cytokine production in induced inflammasome assay: at the nm level, Figure 11; for IC50: read-out: IL-1β production (IC50), LPS and multi-walled carbon nanotubes-induced THP-1 cells
[13] = tested on: leukemia SR; conditions: NCI-DTP 60
[14] = tested on: OVCAR-3
[15] = tested on: Y79; conditions: read-out: IC50 (μM) Nuclei Count Proliferation Y79; tested at MSKCC
[16] = tested on: H3255; conditions: read-out: IC50 (μM) Nuclei Count Proliferation H3255; tested at MSKCC
[17] = tested on: leukemia RPMI-8226; conditions: NCI-DTP 60
[18] = test concentrations 100 μg/mL and 10 μg/mL

Caspase-1 IC100 [8]: Caspase-1: 100 μg/mL
Compound: COc1cc(OC)c2c(c1)C(=O)O[C@H]2c1coc(C)cc1=O [Penisimplicissimum (30), penisimplicissin]
leukemia CCRFCEM log10 GI50 [10]: leukemia CCRFCEM: log10 GI50 (−6.70)
leukemia HL-60 log10 GI50 [11]: leukemia HL-60: log10 GI50 (−5.83)

caspase-1 % inhibition [8]: 68%
IC50 [12]: 2.7 µM
Compound: C=C1[C@@]2(C)C[C@H]3[C@]4(C)CC[C@@H](O)C(C)(C)[C@H]4CC[C@]3(C)[C@]1(C(=O)OC)C(=O)[C@@](C)(O)C2=O [Berkeleyone A (12), Berkeleyone A]

Caspase-1 IC100 [8]: Caspase-1: 10 μg/mL
Compound: C/C=C/C1=CC2=CC(=O)[C@](C)(O)[C@H](OC(=O)c3c(C)cc(O)cc3O)[C@H]2CO1 [Berkazaphilone C (27), berkazaphilone C]
concentration completely inhibitory to IL-1β production in THP-1 cells [12]: 20 µg/mL
inhibition of cytokine production in induced inflammasome assay [12]: completely inhibited
leukemia SR log10 GI50 [13]: leukemia SR: log10 GI50 (−6.42)

Caspase-1 IC100 [8]: Caspase-1: 100 μg/mL
Compound: C/C=C/C1=CC2=CC(=O)[C@@H](C)[C@H](O)[C@H]2CO1 [Berkazaphilone A (25), Berkazaphilone A]

MMP-3 inhibition, concentration range [1]: mM range
caspase-1 inhibition, concentration range [8]: mM range
Compound: COC(=O)[C@]12C(=O)[C@H](C)O[C@@H]3OC(=O)[C@](C)(C[C@H]4C(C)=C5CC(=O)OC(C)(C)C5=CC[C@@]41C)[C@@H]32 [berkeleyacetals A (17), berkeleyacetal A]

caspase-1 % inhibition [8]: 100%
IC50 [12]: 3.7 µM
Compound: C=C1[C@@]2(C)C[C@@H]3[C@](C)(CC=C4C(C)(C)OC(=O)CC[C@]43C)[C@]1(C(=O)OC)C(=O)[C@@](C)(O)C2=O [Berkeleyone B (13), Berkeleyone B]

caspase-1 inhibition [8]: inhibited caspase-1 activity
caspase-1 % inhibition [8]: 97%
IC50 [12]: 15.5 µM
Compound: C=C1[C@@]2(C)C[C@H]3[C@]4(C)CCC(=O)C(C)(C)[C@H]4CC[C@]3(C)[C@]1(C(=O)OC)C(=O)[C@@](C)(O)C2=O [Preaustinoid A (10), preaustinoid A]

IC50 [1]: 0.315 µM
IC50 [8]: 23 µM
Compound: Berkebisabolane B [Berkebisabolane B (5)]

caspase-1 % inhibition [8]: 0%
IC50 [12]: 37.8 µM
Compound: C=C(C)C1=CC[C@@]2(C)[C@@H](C[C@]3(C)C(=C)[C@@]2(C(=O)OC)C(=O)[C@@](C)(O)C3=O)[C@]1(C)CCC(=O)O [Berkeleyone C (14), Berkeleyone C]

caspase-1 IC50 [8]: 50 µg/mL
Compound: CC(=O)N[C@H](C(=O)O[C@H]1CCC(C)(C)[C@@H]2CC=C3C(=O)OC[C@]3(O)[C@@]12C)C(C)C [B (32), Berkedrimane B]
inhibition of cytokine production in induced inflammasome assay [12]: completely inhibited

IC50 [1]: 22 µM
caspase-1 % inhibition [8]: 89%
IC50 [12]: 4.4 µM
Compound: C=C1[C@@]2(C)C[C@H]3C(C)=C4CC(=O)OC(C)(C)C4=CC[C@]3(C)[C@]1(C(=O)OC)C(=O)[C@@](C)(O)C2=O [Berkeleydione (8), berkeleydione]
NCI-H460 log10 GI50 [9]: NCI-H460: log10 GI50 −6.40.
activity towards NCI-H460 [9]: selective activity

IC50 [2]: 2.7 µM
IC50 [16]: 2.6 µM
IC50 [5]: 3.6 µM
Compound: C/C=C(\C)C(=O)O[C@H]1C=CC(=O)O[C@H]1/C=C/C(=O)[C@H](C)O [compound 35, Phomopsolide C]
IC50 [15]: 1.4 µM
IC50 [3]: 1.4 µM
IC50 [4]: 2.2 µM

Caspase-1 IC100 [8]: Caspase-1: 10 μg/mL
Compound: C/C=C/C1=CC2=CC(=O)[C@](C)(OC(=O)c3c(C)cc(O)cc3O)[C@H](O)[C@H]2CO1 [Berkazaphilone B (26), berkazaphilone B]
leukemia RPMI-8226 log10 GI50 [17]: leukemia RPMI-8226: log10 GI50 (−5.67)
concentration completely inhibitory to IL-1β production in THP-1 cells [12]: 2.0 µg/mL

Continued, compound first:

Compound: C/C=C(\C)C(=O)O[C@H]1C=CC(=O)O[C@H]1/C=C\C(=O)C(C)O (stereo partly drawn) [compound 33, Phomopsolide A]
IC50 [1]: 100 µM
IC50 [2]: 5 µM
IC50 [3]: 4.8 µM
IC50 [4]: 6.5 µM
IC50 [5]: 6.3 µM

Compound: C=C1[C@@]2(C)C[C@H]3[C@@]4(C)C(=CC[C@]3(C)[C@]1(C(=O)OC)C(=O)[C@@](C)(O)C2=O)C(C)(C)C(=O)C[C@H]4O [Berkeleytrione (9), berkeleytrione]
IC50 [1]: 180 µM

Compound: CC(C)C[C@H]1C[C@H]([C@@H](O)CC(=O)Cc2ccccc2)C(=O)N1 [Berkeleyamide A (21), Berkeleyamide A]
NCI-H522 log10 GI100 [6]: log10 GI100: 10 μM;

Compound: C/C=C(\C)C(=O)O[C@H]1C=CC(=O)O[C@H]1CCC(=O)[C@H](C)O [compound 36, Phomopsolide E]
IC50 [2]: 7.3 µM
IC50 [3]: 6.6 µM

Compound: C[C@@H]1O[C@@H]2OC(=O)[C@]3(C)C[C@@H]4[C@](C)(C(=O)C=C5C(=CC(=O)OC5(C)C)[C@@]45CO5)[C@H](C1=O)[C@H]23 [berkeleyacetal C (19), berkeleyacetal C]
MMP-3 inhibition, concentration range [1]: micromolar range
growth inhibition of all leukemia cell lines [7]: inhibited the growth
caspase-1 inhibition, concentration range [8]: micromolar range
growth inhibition of NCI H460 [9]: inhibited the growth

Compound: Berkedrimane A [Berkedrimane A (31)]
caspase-1 IC50 [8]: 60 µg/mL
inhibition of cytokine production in induced inflammasome assay [12]: completely inhibited

Compound: phompyrone [compound 38]
IC50 [1]: > 100 µM

Compound: Berkebisabolane C [Berkebisabolane C (6)]
IC50 [1]: 0.34 µM
IC50 [8]: 23 µM

Compound: CCCCC[C@@H]1Cc2cc(O)c(C(=O)O)c3c2[C@H](C[C@]2(OC[C@H](CC(=O)C(C)(CC)C(=O)OC)[C@H]2C)O3)O1 (stereo partly drawn) [Berkelic acid (1), berkelic acid]
IC50 [1]: 1.87 µM
IC50 [8]: 98 µM
activity in the NCI-DTP60 against OVCAR-3 [14]: active
GI50 ([14]; read-out: GI50 NCI-DTP: OVCAR-3, NCI-DTP 60): 0.091 µM

Compound: C/C=C/c1cc(=O)c([C@@H]2OC(=O)c3cc(OC)cc(OC)c32)co1 [Vermistatin (28), vermistatin]
caspase-1 inhibition [8, 18]: not inhibitory

Compound: C/C=C(\C)C(=O)O[C@H]1C=CC(=O)O[C@H]1/C=C/[C@H](O)[C@H](C)O [compound 34, Phomopsolide B]
IC50 [3]: 6.1 µM

Compound: CCCCCCCCCC(=O)[C@@]12O[C@@]13C1=COC(C[C@H](C)O)=CC1=CC(=O)[C@]3(C)OC2=O [compound 45, berkchaetoazaphilone B]
caspase-1 inhibition [8]: strongest caspase-1 inhibitor

Compound: COC(=O)[C@]12C(=O)[C@H](C)O[C@@H]3OC(=O)[C@](C)(C[C@H]4[C@]5(CO5)C5=CC(=O)OC(C)(C)C5=CC[C@@]41C)[C@@H]32 [B (18), berkeleyacetal B]
MMP-3 inhibition, concentration range [1]: mM range
caspase-1 inhibition, concentration range [8]: mM range

Compound: Berkebisabolane A [Berkebisabolane A (4)]
IC50 [1]: 0.28 µM
IC50 [8]: 23 µM

Compound: CCCc1cc(=O)c([C@@H]2OC(=O)c3cc(OC)cc(OC)c32)co1 [dihydrovermistatin (29), dihydrovermistatin]
caspase-1 inhibition [8, 18]: not inhibitory

Compound: C=C1[C@@]2(C)C[C@H]3[C@]4(C)CCC(=O)OC(C)(C)[C@@H]4CC[C@]3(C)[C@]1(C(=O)OC)C(=O)[C@@](C)(O)C2=O [Preaustinoid A1(11), Preaustinoid A1]
caspase-1 % inhibition [8]: 77%
IC50 [12]: 34.3 µM
